Source: patent publication US20210000966A1, “HSP90-TARGETING CONJUGATES AND FORMULATIONS THEREOF” (TARVEDA THERAPEUTICS, INC., priority 2017, published 2021)

System: MEK
Assay: MEK activity (FIG. 8C)
Format: biochemical
Details: in words
Description: The activity of the respective payload is blocked until the linker moiety gets cleaved in the tumor and releases active unblocked payload. Through the HSP90 platform, toxicity is mitigated by masking the payload's active site until it can be delivered to the tumor.
FIG. 8A compares the activity of Conjugate 45 and its payload (talazoparib). FIG. 8B compares the activity of Conjugate 46 and its payload (ulixertinib). FIG. 8C compares the activity of Conjugate 47 and its payload TAK-733. The data further support that attaching a payload to a HSP90 binding ligand blocks the target activity of the payload. The HSP90 bindings of the HSP90 ligands are not affected.

CCNC(=O)c1nnc(-c2cc(C(C)C)c(O)cc2O)n1-c1ccc(N(C)C2CCN(C(=O)CCC(=O)OC[C@H](O)Cn3cnc4c(c(Nc5ccc(I)cc5F)c(F)c(=O)n4C)c3=O)CC2)cc1 [Conjugate 47] was tested, and the “MEK activity compared with payload TAK-733” value was “lower than its payload”.
